This note sets out measurements from patent US20260325533A1, “CDK INHIBITOR COMPOUNDS” (ALEKSIA THERAPEUTICS, INC., priority 2023, published 2026).

Read-outs that look alike come from different tables or passages of the source.

Common to all, as to type: biochemical
One experiment has as its target CDK4/CCND3 (Homo sapiens, UniProt P11802). The experiment is described as follows: CDK4 homogeneous time-resolved fluorescence (HTRF) kinase assay. Conditions: CDK4/CCND. A digest of the protocol:
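TR-FRET read (665 nm, or 665/615 ratio) of 4E-BP1 Thr37/46 phosphorylation by 1.5 nM CDK4/CCND3 at 1 mM ATP, 50 nM ULight peptide, 1% DMSO. Reaction ran 60 min at 23 °C after 20 min compound–enzyme preincubation. IC50 from 11-point half-log dilutions, top 10 μM.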
For orientation: TR-FRET usually uses a lanthanide donor and a delayed reading to cut background.

Another experiment has as its target CDK1/CCNB1 (Homo sapiens, UniProt P06493). The experiment is described as follows: CDK1 homogeneous time-resolved fluorescence (HTRF) kinase assay. As to conditions: CDK1/CCNB. In outline:
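High-ATP (1 mM) HTRF assay with 0.5 nM CDK1/cyclin B1 and 50 nM ULight-4E-BP1 (Thr37/46) substrate, 60 min at 23 °C after 20-min compound preincubation. IC50 values come from dose-response curves.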

The target in a further experiment is CDK6/CCND1 (Homo sapiens, UniProt Q00534). The experiment in a line: CDK6 homogeneous time-resolved fluorescence (HTRF) kinase assay. Conditions: CDK6/CCND. A digest of the protocol:
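Assay conditions: HEPES buffer containing 10 mM MgCl2, 1 mM EGTA, 2 mM DTT, 0.01% Tween 20; 1 nM CDK6/CCND1, 50 nM peptide substrate, 1 mM ATP. Detection after 60 min reaction used 2 nM europium antibody with 340 nm excitation. Potency fitted from half-log series, 11 points.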

In the next experiment the target is CDK2/CCNE1 (Homo sapiens, UniProt P24941). The experiment is described as follows: CDK2 homogeneous time-resolved fluorescence (HTRF) kinase assay. Conditions: CDK2/CCNE. A digest of the protocol:
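IC50 derived from 11-point, half-log dilutions (usually top 10 μM) of compound, 1% DMSO. Kinase (3 nM CDK2/CCNE1) was preincubated with compound 20 min, then phosphorylated 50 nM ULight-4E-BP1 peptide at 1 mM ATP for 60 min, 23 °C. Europium-antibody TR-FRET read after EDTA stop.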

[1] abbreviates: >250 nM marked x, read-out: CDK4/CCND IC50 >250 nM.
Setting [2] is: >250 nM marked x, read-out: CDK1/CCNB IC50 >250 nM.
Where [3] appears, read: >250 nM marked x, read-out: CDK6/CCND IC50 >250 nM.
Where [4] appears, read: <25 nM, read-out: CDK2/CCNE IC50 <25 nM.
Setting [5] is: >250 nM marked x, read-out: CDK2/CCNE IC50 >250 nM.
Where [6] appears, read: 25-250 nM marked x, read-out: CDK2/CCNE IC50 25-250 nM.

Chain of CDK1/CCNB1 (P06493 whole entry): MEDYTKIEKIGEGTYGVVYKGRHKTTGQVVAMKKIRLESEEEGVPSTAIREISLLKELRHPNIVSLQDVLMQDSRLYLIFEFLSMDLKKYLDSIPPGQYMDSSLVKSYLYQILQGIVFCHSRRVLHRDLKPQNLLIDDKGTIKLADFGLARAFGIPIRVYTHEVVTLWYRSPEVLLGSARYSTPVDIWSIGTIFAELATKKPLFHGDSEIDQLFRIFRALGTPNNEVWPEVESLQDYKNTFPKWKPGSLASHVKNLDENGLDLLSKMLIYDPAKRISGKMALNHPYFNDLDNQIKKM
Chain of CDK1/CCNB1 (P14635 whole entry partner): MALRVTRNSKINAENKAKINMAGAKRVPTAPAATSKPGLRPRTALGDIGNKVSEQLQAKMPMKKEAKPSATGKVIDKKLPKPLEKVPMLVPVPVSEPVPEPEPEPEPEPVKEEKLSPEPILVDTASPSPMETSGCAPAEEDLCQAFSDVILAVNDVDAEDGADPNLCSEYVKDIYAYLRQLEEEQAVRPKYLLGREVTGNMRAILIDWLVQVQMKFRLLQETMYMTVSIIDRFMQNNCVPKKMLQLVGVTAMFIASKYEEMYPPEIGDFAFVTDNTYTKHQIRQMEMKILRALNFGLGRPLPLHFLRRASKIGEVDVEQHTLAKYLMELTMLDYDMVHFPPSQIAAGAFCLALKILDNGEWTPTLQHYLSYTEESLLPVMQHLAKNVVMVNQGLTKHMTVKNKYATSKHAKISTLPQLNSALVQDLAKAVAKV
Chain of CDK4/CCND3 (P11802 whole entry): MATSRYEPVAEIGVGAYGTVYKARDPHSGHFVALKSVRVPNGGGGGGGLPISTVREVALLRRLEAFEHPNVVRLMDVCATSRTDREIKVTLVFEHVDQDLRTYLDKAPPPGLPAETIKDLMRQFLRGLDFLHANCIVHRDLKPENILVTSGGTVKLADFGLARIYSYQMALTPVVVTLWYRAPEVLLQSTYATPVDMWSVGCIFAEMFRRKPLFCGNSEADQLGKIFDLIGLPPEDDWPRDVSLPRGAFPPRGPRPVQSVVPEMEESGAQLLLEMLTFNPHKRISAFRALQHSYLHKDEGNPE
Chain of CDK4/CCND3 (P30281 whole entry partner): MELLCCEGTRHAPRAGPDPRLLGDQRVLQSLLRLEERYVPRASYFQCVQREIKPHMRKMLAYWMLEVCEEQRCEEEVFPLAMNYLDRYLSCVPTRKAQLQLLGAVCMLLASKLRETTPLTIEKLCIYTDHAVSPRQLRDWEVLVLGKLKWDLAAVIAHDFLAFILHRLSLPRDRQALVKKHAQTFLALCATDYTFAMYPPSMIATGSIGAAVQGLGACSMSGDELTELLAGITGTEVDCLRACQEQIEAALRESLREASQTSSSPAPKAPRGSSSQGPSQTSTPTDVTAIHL
Chain of CDK6/CCND1 (Q00534 whole entry): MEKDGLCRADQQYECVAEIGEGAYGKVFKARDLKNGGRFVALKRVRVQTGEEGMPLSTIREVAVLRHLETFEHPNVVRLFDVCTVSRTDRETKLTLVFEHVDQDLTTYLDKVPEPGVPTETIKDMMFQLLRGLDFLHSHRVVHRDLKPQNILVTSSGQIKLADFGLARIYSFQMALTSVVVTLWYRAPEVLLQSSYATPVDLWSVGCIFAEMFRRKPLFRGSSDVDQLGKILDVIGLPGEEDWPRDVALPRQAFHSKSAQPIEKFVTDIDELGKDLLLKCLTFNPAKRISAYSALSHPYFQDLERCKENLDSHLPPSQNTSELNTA
Chain of CDK6/CCND1 (P24385 whole entry partner): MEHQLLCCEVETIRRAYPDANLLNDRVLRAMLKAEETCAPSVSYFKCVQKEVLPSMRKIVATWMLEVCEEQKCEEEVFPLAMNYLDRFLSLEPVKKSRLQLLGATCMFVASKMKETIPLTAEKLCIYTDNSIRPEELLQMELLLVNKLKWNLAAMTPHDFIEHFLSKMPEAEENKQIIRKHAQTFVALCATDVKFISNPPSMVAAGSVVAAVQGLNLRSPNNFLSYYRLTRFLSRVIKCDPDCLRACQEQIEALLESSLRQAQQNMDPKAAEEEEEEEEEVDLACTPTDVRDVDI

Consider `COc1cc(S(=N)(=O)C2CC2)ccc1Nc1cc2c(C#Cc3ccc4c(c3)NC(=O)C43CC3)nccc2cn1` (single isomer, unassigned) [Ex 278, 6'-((7-((4-(cyclopropanesulfonimidoyl)-2-methoxyphenyl)amino)-2,6-naphthyridin-1-yl)ethynyl)spiro[cyclopropane-1,3'-indolin]-2'-one], for which the IC50 at CDK4/CCND3 (setting [1]) was more than 250 nM; at CDK1/CCNB1 (setting [2]), more than 250 nM; at CDK6/CCND1 (setting [3]), more than 250 nM; on CDK2/CCNE1 (setting [4]), less than 25 nM.
With `CCC1(CC)C(=O)Nc2cc(C#Cc3nccc4cnc(Nc5ccc(S(=N)(=O)CC(F)(F)F)cc5OC)cc34)ccc21` (single isomer, unassigned) [Ex 281, 3,3-diethyl-6-((7-((2-methoxy-4-(2,2,2-trifluoroethylsulfonimidoyl)phenyl)amino)-2,6-naphthyridin-1-yl)ethynyl)indolin-2-one], the IC50 on CDK4/CCND3 (setting [1]), at CDK1/CCNB1 (setting [2]), at CDK6/CCND1 (setting [3]) and on CDK2/CCNE1 (setting [5]) was more than 250 nM each time.
As to `CCC1(CC)C(=O)Nc2cc(C#Cc3nccc4cnc(Nc5ccc(S(=N)(=O)CC(F)(F)F)cc5C)cc34)ccc21` (single isomer, unassigned) [Ex 284, 3,3-diethyl-6-((7-((2-methyl-4-(2,2,2-trifluoroethylsulfonimidoyl)phenyl)amino)-2,6-naphthyridin-1-yl)ethynyl)indolin-2-one], the IC50 at CDK4/CCND3 (setting [1]) is more than 250 nM; at CDK1/CCNB1 (setting [2]), more than 250 nM; at CDK6/CCND1 (setting [3]), more than 250 nM; on CDK2/CCNE1 (setting [6]), 25 to 250 nM.
With `CCS(=N)(=O)c1ccc(Nc2cc3c(C#Cc4ccc5c(c4)NC(=O)C54CC4)nccc3cn2)c(OC)c1` (single isomer, unassigned) [Ex 289, 6'-((7-((4-(ethylsulfonimidoyl)-2-methoxyphenyl)amino)-2,6-naphthyridin-1-yl)ethynyl)spiro[cyclopropane-1,3'-indolin]-2'-one], the IC50 at CDK4/CCND3 (setting [1]) is more than 250 nM; at CDK1/CCNB1 (setting [2]) it was more than 250 nM; on CDK6/CCND1 (setting [3]) it was more than 250 nM; at CDK2/CCNE1 (setting [4]) it was less than 25 nM.
For the molecule `CCC1(CC)C(=O)Nc2cc(C#Cc3nccc4cnc(Nc5ccc(S(C)(=N)=O)cc5C(F)F)cc34)ccc21` (single isomer, unassigned) [Ex 294, 6-((7-((2-(difluoromethyl)-4-(S-methylsulfonimidoyl)phenyl)amino)-2,6-naphthyridin-1-yl)ethynyl)-3,3-diethylindolin-2-one], the IC50 on CDK4/CCND3 (setting [1]) is more than 250 nM; at CDK1/CCNB1 (setting [2]) it was more than 250 nM; at CDK6/CCND1 (setting [3]), more than 250 nM; at CDK2/CCNE1 (setting [6]) it was 25 to 250 nM.
For `CCC1(CC)C(=O)Nc2cc(C#Cc3nccc4cnc(Nc5ccc(S(=N)(=O)C6CC6)cc5OC)cc34)ccc21` (single isomer, unassigned) [Ex 299, 6-((7-((4-(cyclopropanesulfonimidoyl)-2-methoxyphenyl)amino)-2,6-naphthyridin-1-yl)ethynyl)-3,3-diethylindolin-2-one], the IC50 at CDK4/CCND3 (setting [1]) is more than 250 nM; on CDK1/CCNB1 (setting [2]) it was more than 250 nM; on CDK6/CCND1 (setting [3]) it was more than 250 nM; on CDK2/CCNE1 (setting [6]) it was 25 to 250 nM.
For the molecule `CCC1(CC)C(=O)Nc2cc(C#Cc3nccc4cnc(Nc5ccc(S(=N)(=O)C6CC(F)(F)C6)cc5F)cc34)ccc21` (single isomer, unassigned) [Ex 301, 6-((7-((4-(3,3-difluorocyclobutane-1-sulfonimidoyl)-2-fluorophenyl)amino)-2,6-naphthyridin-1-yl)ethynyl)-3,3-diethylindolin-2-one], the IC50 at CDK4/CCND3 (setting [1]), at CDK1/CCNB1 (setting [2]), on CDK6/CCND1 (setting [3]) and at CDK2/CCNE1 (setting [5]) was more than 250 nM in each case.
`CCC1(CC)C(=O)Nc2cc(C#Cc3nccc4cnc(Nc5ccc(S(=N)(=O)C6CC(F)(F)C6)cc5)cc34)ccc21` (single isomer, unassigned) [Ex 303, 6-((7-((4-(3,3-difluorocyclobutane-1-sulfonimidoyl)phenyl)amino)-2,6-naphthyridin-1-yl)ethynyl)-3,3-diethylindolin-2-one]: the IC50 on CDK4/CCND3 (setting [1]) was more than 250 nM; at CDK1/CCNB1 (setting [2]), more than 250 nM; on CDK6/CCND1 (setting [3]), more than 250 nM; on CDK2/CCNE1 (setting [6]), 25 to 250 nM.
For the molecule `COc1cc(S(C)(=N)=O)ccc1Nc1cc2c(C#Cc3ccc4c(c3)NC(=O)C43CC3)nccc2cn1` (single isomer, unassigned) [Ex 305, 6'-((7-((2-methoxy-4-(S-methylsulfonimidoyl)phenyl)amino)-2,6-naphthyridin-1-yl)ethynyl)spiro[cyclopropane-1,3'-indolin]-2'-one], the IC50 is more than 250 nM on CDK4/CCND3 (setting [1]), more than 250 nM on CDK1/CCNB1 (setting [2]), more than 250 nM on CDK6/CCND1 (setting [3]) and less than 25 nM on CDK2/CCNE1 (setting [4]).
Consider `N=S(=O)(c1ccc(Nc2cc3c(C#Cc4ccc5c(c4)NC(=O)C54CC4)nccc3cn2)cc1)C1CC1` (single isomer, unassigned) [Ex 306, 6'-((7-((4-(cyclopropanesulfonimidoyl)phenyl)amino)-2,6-naphthyridin-1-yl)ethynyl)spiro[cyclopropane-1,3'-indolin]-2'-one], for which the IC50 on CDK4/CCND3 (25-250 nM marked x, read-out: CDK4/CCND IC50 25-250 nM) is 25 to 250 nM; on CDK1/CCNB1 (25-250 nM marked x, read-out: CDK1/CCNB IC50 25-250 nM), 25 to 250 nM; at CDK6/CCND1 (25-250 nM marked x, read-out: CDK6/CCND IC50 25-250 nM), 25 to 250 nM; at CDK2/CCNE1 (setting [4]), less than 25 nM.
In the case of `CCC1(CC)C(=O)Nc2cc(C#Cc3nccc4cnc(Nc5ccc(S(=N)(=O)CC)cc5OC)cc34)ccc21` (single isomer, unassigned) [Ex 308, 3,3-diethyl-6-((7-((4-(ethylsulfonimidoyl)-2-methoxyphenyl)amino)-2,6-naphthyridin-1-yl)ethynyl)indolin-2-one], the IC50 is more than 250 nM on CDK4/CCND3 (setting [1]), more than 250 nM at CDK1/CCNB1 (setting [2]), more than 250 nM on CDK6/CCND1 (setting [3]) and 25 to 250 nM at CDK2/CCNE1 (setting [6]).
In the case of `CCS(=N)(=O)c1ccc(Nc2cc3c(C#Cc4ccc5c(c4)NC(=O)C54CCC4)nccc3cn2)c(OC)c1` (single isomer, unassigned) [Ex 310, 6'-((7-((4-(ethylsulfonimidoyl)-2-methoxyphenyl)amino)-2,6-naphthyridin-1-yl)ethynyl)spiro[cyclobutane-1,3'-indolin]-2'-one], the IC50 on CDK4/CCND3 (setting [1]) was more than 250 nM; on CDK1/CCNB1 (setting [2]), more than 250 nM; on CDK6/CCND1 (setting [3]), more than 250 nM; on CDK2/CCNE1 (setting [4]), less than 25 nM.
As for `COc1cc(S(C)(=N)=O)ccc1Nc1cc2c(C#Cc3ccc4c(c3)NC(=O)C43CCC3)nccc2cn1` (single isomer, unassigned) [Ex 313, 6'-((7-((2-methoxy-4-(S-methylsulfonimidoyl)phenyl)amino)-2,6-naphthyridin-1-yl)ethynyl)spiro[cyclobutane-1,3'-indolin]-2'-one], the IC50 is more than 250 nM on CDK4/CCND3 (setting [1]), more than 250 nM at CDK1/CCNB1 (setting [2]), more than 250 nM on CDK6/CCND1 (setting [3]) and 25 to 250 nM on CDK2/CCNE1 (setting [6]).
On to `CCC1(CC)C(=O)Nc2cc(C#Cc3nccc4cnc(Nc5ccc(S(=N)(=O)C6COC6)cc5C)cc34)ccc21` (single isomer, unassigned) [Ex 316, 3,3-diethyl-6-((7-((2-methyl-4-(oxetane-3-sulfonimidoyl)phenyl)amino)-2,6-naphthyridin-1-yl)ethynyl)indolin-2-one], for which the IC50 is more than 250 nM at CDK4/CCND3 (setting [1]), more than 250 nM on CDK1/CCNB1 (setting [2]), more than 250 nM on CDK6/CCND1 (setting [3]) and less than 25 nM on CDK2/CCNE1 (setting [4]).
`CCC1(CC)C(=O)Nc2cc(C#Cc3nccc4cnc(Nc5ccc(S(=N)(=O)C6COC6)cc5OC)cc34)ccc21` (single isomer, unassigned) [Ex 317, 3,3-diethyl-6-((7-((2-methoxy-4-(oxetane-3-sulfonimidoyl)phenyl)amino)-2,6-naphthyridin-1-yl)ethynyl)indolin-2-one]: the IC50 was more than 250 nM on CDK4/CCND3 (setting [1]), more than 250 nM at CDK1/CCNB1 (setting [2]), more than 250 nM at CDK6/CCND1 (setting [3]) and 25 to 250 nM on CDK2/CCNE1 (setting [6]).
As to `CCC1(CC)C(=O)Nc2cc(C#Cc3nccc4cnc(Nc5ccc(S(C)(=N)=O)cc5OC)cc34)ccc21` (single isomer, unassigned) [Ex 319, 3,3-diethyl-6-((7-((2-methoxy-4-(S-methylsulfonimidoyl)phenyl)amino)-2,6-naphthyridin-1-yl)ethynyl)indolin-2-one], the IC50 at CDK4/CCND3 (setting [1]) is more than 250 nM; on CDK1/CCNB1 (setting [2]), more than 250 nM; at CDK6/CCND1 (setting [3]), more than 250 nM; at CDK2/CCNE1 (setting [6]), 25 to 250 nM.
